Measured values: US9163020B2, “Azaindole compounds, synthesis thereof, and methods of using the same” (Global Alliance for TB Drug Development, priority 2013, dated 2015)
≈ marks a conversion by molar mass, not a printed value. Like-named read-outs stand apart in the source and are kept apart here.

How the values were obtained:
[1] = format: in vitro ADME; settings: human, rat
Procedure: 1 μM compound was incubated with 1 mg/mL of microsomes (Pooled HLM/MLM with 20 mg/ml protein cone.) at 37° C. in 166 μL of buffer (100 mM phosphate buffer, pH-7.4) containing 2 mM NADPH solution. […] The quench plate was centrifuged at 4000 rpm for 15 min. 30 μL of supernatant was diluted to 300 μL with 50% acetonitrile in water and substrate depletion was analyzed using LC-MS/MS.

[2] = Procedure: Viability of cryopreserved hepatocytes was determined using trypan blue and the cell conc. was adjusted to 10^6 cells per mL with buffer (KHB buffer). 1 μM compound (in Acetonitrile; 0.01% DMSO) was incubated with 500 μL of hepatocyte cells (1 million cells per mL) in a NUNC plate. […] Supernatants were analyzed using LC-MS/MS for substrate depletion.
in vitro = in vitro ADME; settings: pH 7.4; mouse microsomes; read-out: Mo micrsomal Clint
Procedure: 1 μM compound was incubated with 1 mg/mL of microsomes (Pooled HLM/MLM with 20 mg/ml protein cone.) at 37° C. in 166 μL of buffer (100 mM phosphate buffer, pH-7.4) containing 2 mM NADPH solution. 20 μL of incubation mix was quenched with 4 volumes chilled acetonitrile at different time points i.e. 0, 2, 5, 10, 20 and 30 min in a fresh 96 well plate. The quench plate was centrifuged at 4000 rpm for 15 min. 30 μL of supernatant was diluted to 300 μL with 50% acetonitrile in water and substrate depletion was analyzed using LC-MS/MS.

in vivo [3] = settings: Wistar, rat, in vivo, po, 30 mg/kg
Procedure: PK of azaindoles compounds was performed in mice (healthy and infected) and rats. Mice were pretreated with 100 mg/kg ABT two hours prior to the compound administration. PK data from healthy mice was used to design the dosing regimen for the efficacy study while, information from infected mice was used for the PK-PD analysis.
All oral administration was performed as suspensions in 0.5% HPMC, and 0.1% Tween 80. […] All blood samples were collected via sapheneous vein into Microvette CB300® (Starstedt, Germany) tubes coated with Lithium-Heparin, and plasma was prepared from the collected blood by centrifugation.
One mg/mL stock solution of each compound was prepared in Dimethylsulfoxide (DMSO) and diluted two-fold with acetonitrile. A sixteen point calibration curve was utilized for each analyte, and the standard curves ranged from 0.001 to 40 μg/mL. Plasma/BAL samples were precipitated by adding chilled acetonitrile (1:10 v/v) containing carbamazepine as internal standard (250 ng/mL). Samples were vortexed, and centrifuged at 4000 rpm for 30 min at 10° C. The resulting supernatant was mixed with mobile phase (50% acetonitrile in water with 0.1% formic acid). […] of sample was injected on to a liquid chromatographic system (Waters-ACQUTY UPLC) coupled to triple quadrupole mass spectrometer (Waters-ACQUTY-TQD; MS/MS). Samples were acquired in positive ion mode and detected by multiple reaction monitoring (MRM). Concentrations of the analyte were determined from a standard curve obtained by plotting known concentrations of the analyte against peak area ratios (analyte/internal standard peak response).
PK analysis of the plasma concentration-time relationships were performed with WinNonlin Phoenix Software (version 6.2; Pharsight, USA). […] The maximum concentration of drug in plasma (Cmax), time to Cmax (Tmax), elimination half-life (t1/2), and AUC from time zero to infinity (AUC0-∞) were estimated. […] Minimum of three sample points in the terminal slope were used to estimate to calculate half-life.

hERG = hERG (Homo sapiens, UniProt Q12809)
hERG, sequence (Q12809 whole entry): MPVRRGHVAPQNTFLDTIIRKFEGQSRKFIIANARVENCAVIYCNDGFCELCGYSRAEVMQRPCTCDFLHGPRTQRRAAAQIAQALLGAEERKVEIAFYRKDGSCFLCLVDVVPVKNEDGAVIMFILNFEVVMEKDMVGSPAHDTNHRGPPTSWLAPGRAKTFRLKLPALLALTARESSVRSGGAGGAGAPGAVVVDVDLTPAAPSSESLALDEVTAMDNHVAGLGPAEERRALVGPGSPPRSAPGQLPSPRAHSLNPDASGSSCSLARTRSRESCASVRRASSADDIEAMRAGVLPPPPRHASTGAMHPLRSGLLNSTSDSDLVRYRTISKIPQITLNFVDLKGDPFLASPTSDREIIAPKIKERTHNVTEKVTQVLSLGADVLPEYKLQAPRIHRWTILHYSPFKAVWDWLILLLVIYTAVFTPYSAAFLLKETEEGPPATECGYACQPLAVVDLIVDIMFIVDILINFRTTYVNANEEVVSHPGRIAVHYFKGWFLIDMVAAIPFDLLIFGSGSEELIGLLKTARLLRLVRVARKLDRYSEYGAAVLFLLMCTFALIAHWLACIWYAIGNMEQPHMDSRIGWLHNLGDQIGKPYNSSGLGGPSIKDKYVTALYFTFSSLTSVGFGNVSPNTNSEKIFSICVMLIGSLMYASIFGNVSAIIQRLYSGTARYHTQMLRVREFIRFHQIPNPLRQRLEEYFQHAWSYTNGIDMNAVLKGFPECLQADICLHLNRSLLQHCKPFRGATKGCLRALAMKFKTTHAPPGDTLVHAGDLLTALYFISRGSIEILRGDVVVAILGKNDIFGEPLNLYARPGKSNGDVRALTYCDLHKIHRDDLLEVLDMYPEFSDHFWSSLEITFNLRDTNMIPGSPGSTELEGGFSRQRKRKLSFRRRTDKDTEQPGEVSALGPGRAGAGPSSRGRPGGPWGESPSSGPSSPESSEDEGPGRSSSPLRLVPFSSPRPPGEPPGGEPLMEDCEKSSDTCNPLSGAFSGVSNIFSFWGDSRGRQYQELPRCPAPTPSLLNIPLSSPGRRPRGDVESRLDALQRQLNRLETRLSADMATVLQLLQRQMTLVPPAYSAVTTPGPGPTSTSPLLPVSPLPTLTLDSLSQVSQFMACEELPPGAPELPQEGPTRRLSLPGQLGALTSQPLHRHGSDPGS
Procedure: Compounds were tested on voltage-gated ion channels using the medium-throughput electrophysiology IonWorks™ device. […] For carrying out the experiment, a boat in the “Cells” position of the IonWorks™ instrument was loaded with the cell suspension, and a 96-well PBS destination plate was placed in the “Plate 1” position. A 384-well PatchPlate™ was placed in the IonWorks™ plenum and held in position using the plenum clamp. From this point the experiment progress is automated and ultimately reports a non-cumulative concentration-effect curve for test compound.

in vivo [4] = settings: BALB/c, mouse, po, 50 mg/kg
in vivo [5] = settings: BALB/c, mouse, po
[6] = tested on: Mycobacterium tuberculosis (Mtb) H37Rv ATCC 27294; assay: microbe, parasite or virus in culture; format: cell-based; settings: Mycobacterium tuberculosis
in vivo [7] = settings: male, Wistar, rat, po, 100 mg/kg
[8] = tested on: Mycobacterium tuberculosis (Mtb) H37Rv; assay: Mtb minimal bactericidal concentration (MBC), plating from MIC plates; format: cell-based; settings: Table 5, read-out: Mtb H37Rv MBC
Procedure: Aliquots from sample wells (MIC and higher) from the MIC plates were diluted 1:10 and plated on 7H10 agar plates. Plates were incubated at 37° C. for 3-4 weeks, CFU was enumerated.

[9] = tested on: hypoxia induced non-replicating persistent (NRP) Mtb cells; assay: Activity against hypoxia induced non-replicating persistent (NRP) Mtb (HBC, Wayne model); format: cell-based, Mycobacterium tuberculosis; settings: for Mtb H37Rv HBC: Table 5
[10] = tested on: A549 human lung carcinoma cells; format: cell-based
Procedure: The in vitro cytotoxicity of compounds were measured against A549 human lung carcinoma cells as describedin Eakin et. al (2012). Briefly, A549 cells (ATCC) were grown in RPMI medium (GIBCO-BRL) containing 10% heat-inactivated fetal bovine serum (GIBCO-BRL) and 1 mM L-glutamine (GIBCO-BRL) at a density of 1,000 cells/well. After incubation of the cells with compound in a CO2 atmosphere at 37° C. for 72 hours, cell viability was determined following addition of […] of resazurin solution (Sigma), by measuring fluorescence (excitation at 535 nm, emission at 590 nm) using a fluorimeter.

[11] = Table 5, read-out: Mtb H37Rv MIC

SMILES: COc1ncnc(Cn2cc(C(=O)NCC3CC3)c3ncccc32)c1C [Compound 4, N-(cyclopropylmethyl)-1-((6-methoxy-5-methylpyrimidin-4-yl)methyl)-1H-pyrrolo[3,2-b]pyridine-3-carboxamide]
- predicted clearance [1]: 4-18 % of liver blood flow (% LBF)
- Human CLpred hepatocytes (% LBF) [2]: 4.3 % LBF
- Rat CLpred hepatocytes (% LBF) [2]: 13 % LBF
- microsomal CLint (in vitro): 180 µL/min/mg
- AUC(0-inf) (in vivo [3]): 22.9 µM·h
- Cmax (in vivo [3]): 2.35 µM
- Tmax (in vivo [3]): 3 h
- half-life (in vivo [3]): 3.64 h
- hERG (hERG): >33 µM
- AUC(0-inf) (in vivo [4]): 200 ± 101 µM·h
- Cmax (in vivo [4]): 38.9 ± 15.2 µM
- Tmax (in vivo [4]): 4.5 ± 2.78 h
- half-life (in vivo [4]): 2.23 ± 0.35 h
- AUC (in vivo [5]): 200 to 700 µM·h
- AUC(0-inf) (in vivo [5]; 30 mg/kg): 227 ± 28.9 µM·h
- Cmax (in vivo [5]; 30 mg/kg): 17.4 ± 1.76 µM
- Tmax (in vivo [5]; 30 mg/kg): 5.67 ± 2.31 h
- half-life (in vivo [5]; 30 mg/kg): 3.85 ± 0.54 h

SMILES: COc1ncnc(Cn2cc(C(=O)NCC(F)F)c3ncc(C)cc32)c1C [Compound 30, N-(2,2-difluoroethyl)-1-((6-methoxy-5-methylpyrimidin-4-yl)methyl)-6-methyl-1H-pyrrolo[3,2-b]pyridine-3-carboxamide]
- MIC ([6]; Table 1, read-out: Mtb MIC): < 0.391 µM
- AUC(0-inf) (in vivo [7]): 23.3 ± 11.7 µM·h
- Cmax (in vivo [7]): 3.4 ± 2 µM
- Tmax (in vivo [7]): 3.3 ± 2.3 h
- half-life (in vivo [7]): 3.3 ± 1.1 h

SMILES: Cc1ccc(Cn2cc(C(=O)NCCF)c3ncccc32)c(C)c1 [Compound 31, 1-(2,4-dimethylbenzyl)-N-(2-fluoroethyl)-1H-pyrrolo[3,2-b]pyridine-3-carboxamide]
- MIC ([6]; Table 1, read-out: Mtb MIC): 1.56 µM (≈ 0.508 µg/mL)
- MIC [6, 11]: 1.56 to 3.12 µM (≈ 0.508 to 1.02 µg/mL)
- MBC [8]: 3.12 to 6.25 µM (≈ 1.02 to 2.03 µg/mL)
- Mtb H37Rv HBC [9]: 12.5 to 25 µM
- MMIC (A549) ([10]; human, 72 h): >82 µM

SMILES: COc1cccc(F)c1Cn1cc(C(=O)NCC2CC2)c2ncccc21 [Compound 32, N-(cyclopropylmethyl)-1-(2-fluoro-6-methoxybenzyl)-1H-pyrrolo[3,2-b]pyridine-3-carboxamide]
- MIC ([6]; Table 1, read-out: Mtb MIC): 1.56 µM (≈ 0.551 µg/mL)
- MIC [6, 11]: 1.56 to 3.12 µM (≈ 0.551 to 1.1 µg/mL)
- MBC [8]: 1.56 to 6.25 µM (≈ 0.551 to 2.21 µg/mL)
- Mtb H37Rv HBC [9]: >200 µM
- MMIC (A549) ([10]; Table 5): >100 µM

SMILES: Cc1cnc2c(C(=O)NCCO)cn(Cc3ncnc(N(C)C)c3C)c2c1 [Compound 34, 1-((6-(dimethylamino)-5-methylpyrimidin-4-yl)methyl)-N-(2-hydroxyethyl)-6-methyl-1H-pyrrolo[3,2-b]pyridine-3-carboxamide]
- MIC ([6]; Table 1, read-out: Mtb MIC): < 0.39 µM
- AUC(0-inf) (in vivo [7]): 166 ± 43.9 µM·h
- Cmax (in vivo [7]): 31.5 ± 3 µM
- Tmax (in vivo [7]): 2 h
- half-life (in vivo [7]): 4.6 h

SMILES: COc1cnc2c(C(=O)NCCF)cn(Cc3ncnc(OC)c3C)c2c1 [Compound 36, N-(2-fluoroethyl)-6-methoxy-1-((6-methoxy-5-methylpyrimidin-4-yl)methyl)-1H-pyrrolo[3,2-b]pyridine-3-carboxamide]
- MIC ([6]; Table 1, read-out: Mtb MIC): < 0.39 µM

SMILES: COc1cnc2c(C(=O)NCC(F)F)cn(Cc3ncnc(OC)c3C)c2c1 [Compound 37, N-(2,2-difluoroethyl)-6-methoxy-1-((6-methoxy-5-methylpyrimidin-4-yl)methyl)-1H-pyrrolo[3,2-b]pyridine-3-carboxamide]
- MIC ([6]; Table 1, read-out: Mtb MIC): < 0.39 µM

SMILES: COc1cnc2c(C(=O)NCCO)cn(Cc3ncnc(OC)c3C)c2c1 [Compound 38, N-(2-hydroxyethyl)-6-methoxy-1-((6-methoxy-5-methylpyrimidin-4-yl)methyl)-1H-pyrrolo[3,2-b]pyridine-3-carboxamide]
- MIC ([6]; Table 1, read-out: Mtb MIC): 0.78 µM (≈ 0.29 µg/mL)

SMILES: COc1cnc2c(C(=O)NCCF)cn(Cc3ncnc(N(C)C)c3C)c2c1 [Compound 39, 1-((6-(Dimethylamino)-5-methylpyrimidin-4-yl)methyl)-N-(2-fluoroethyl)-6-methoxy-1H-pyrrolo[3,2-b]pyridine-3-carboxamide]
- MIC ([6]; Table 1, read-out: Mtb MIC): < 0.39 µM

SMILES: COc1cnc2c(C(=O)NCC(F)F)cn(Cc3ncnc(N(C)C)c3C)c2c1 [Compound 40, N-(2,2-Difluoroethyl)-1-((6-(dimethylamino)-5-methylpyrimidin-4-yl)methyl)-6-methoxy-1H-pyrrolo[3,2-b]pyridine-3-carboxamide]
- MIC ([6]; Table 1, read-out: Mtb MIC): < 0.39 µM

SMILES: COc1cnc2c(C(=O)NCCO)cn(Cc3ncnc(N(C)C)c3C)c2c1 [Compound 41, 1-((6-(Dimethylamino)-5-methylpyrimidin-4-yl)methyl)-N-(2-hydroxyethyl)-6-methoxy-1H-pyrrolo[3,2-b]pyridine-3-carboxamide]
- MIC ([6]; Table 1, read-out: Mtb MIC): < 0.39 µM

SMILES: COc1cnc2c(C(=O)NCCF)cn(Cc3ncnc(OC(F)F)c3C)c2c1 [Compound 42, 1-((6-(Difluoromethoxy)-5-methylpyrimidin-4-yl)methyl)-N-(2-fluoroethyl)-6-methoxy-1H-pyrrolo[3,2-b]pyridine-3-carboxamide]
- MIC ([6]; Table 1, read-out: Mtb MIC): < 0.39 µM

SMILES: COc1cnc2c(C(=O)NCC(F)F)cn(Cc3ncnc(OC(F)F)c3C)c2c1 [Compound 43, N-(2,2-Difluoroethyl)-1-((6-(difluoromethoxy)-5-methylpyrimidin-4-yl)methyl)-6-methoxy-1H-pyrrolo[3,2-b]pyridine-3-carboxamide]
- MIC ([6]; Table 1, read-out: Mtb MIC): < 0.39 µM

SMILES: COc1cnc2c(C(=O)NCCO)cn(Cc3ncnc(OC(F)F)c3C)c2c1 [Compound 44, 1-((6-(difluoromethoxy)-5-methylpyrimidin-4-yl)methyl)-N-(2-hydroxyethyl)-6-methoxy-1H-pyrrolo[3,2-b]pyridine-3-carboxamide]
- MIC ([6]; Table 1, read-out: Mtb MIC): 0.78 µM (≈ 0.318 µg/mL)

SMILES: Cc1cnc2c(C(=O)NCCF)cn(Cc3ncc(C)nc3C)c2c1 [Compound 45, 1-((3,5-dimethylpyrazin-2-yl)methyl)-N-(2-fluoroethyl)-6-methyl-1H-pyrrolo[3,2-b]pyridine-3-carboxamide]
- MIC ([6]; Table 1, read-out: Mtb MIC): < 0.39 µM

SMILES: Cc1cnc2c(C(=O)NCC(F)F)cn(Cc3ncc(C)nc3C)c2c1 [Compound 46, N-(2,2-difluoroethyl)-1-((3,5-dimethylpyrazin-2-yl)methyl)-6-methyl-1H-pyrrolo[3,2-b]pyridine-3-carboxamide]
- MIC ([6]; Table 1, read-out: Mtb MIC): < 0.39 µM

SMILES: NNC(=O)c1ccncc1 [Isoniazid]
- reduction in the bacterial CFU of NRP Mtb [9]: no reduction
